The text below walks through data of ChEMBL document CHEMBL6092203, “Discovery of Novel PROTAC-Based HPK1 Degraders with High Potency and Selectivity for Cancer Immunotherapy” (J Med Chem, 2024).

Data set [1] in a line: Toxicity in Sprague-Dawley rat assessed as no observable adverse effect level measured after 14 days. Conditions: in vivo, time 14 day.
Data set [2] in a line: Tmax in C57BL/6J mouse at 10 mg/kg, po measured upto 24 hrs by LC-MS analysis. Conditions: in vivo. The data set is classed as ADME, organism-based.

Consider `O=C1CCN(c2cc(C(=O)N3CCC(CC4CCN(c5ccc(-c6cnc7[nH]cc(-c8cnn(CC(F)(F)F)c8)c7n6)cn5)CC4)CC3)ccc2Cl)C(=O)N1`, for which the NOAEL (in general, the highest tested level that showed no adverse finding) at 336 h in data set [1] was found to be 100 mg/kg/day. Moreover, in data set [2], the Tmax (usually the time at which the peak concentration occurs) worked out at 1 h.
